# Test results: US6720324B2, “Selective melanin concentrating hormone-1 (MCH1) receptor antagonists and uses thereof” (Synaptic Pharmaceutical Corporation, priority 2000, dated 2004)
# Where two headings read alike, the source gives them in different places.
# Assays:
# human MCH1 receptor [1] = molecular target: T1, human MCH1 receptor (Homo sapiens, UniProt Q99705); test: Radioligand competition binding with [3H]Compound 10, membranes of A293 cells; details: Table 3, A293 cell membranes, [3H]Compound 10 as radioligand, read-out: hMCH1 * Ki
# Experimental: (§1) For binding assays, pellets of transfected cells are suspended in ice-cold buffer (20 mM Tris.HCl, 5 mM EDTA, pH 7.4) and homogenized by sonication for 7 sec. The cell lysates are centrifuged at 200×g for 5 min at 4° C. The supernatants are then centrifuged at 40,000×g for 20 min at 4° C. The resulting pellets are washed once in the homogenization buffer and suspended in binding buffer (see methods for radioligand binding). Protein concentrations are determined by the method of Bradford (1976) using bovine serum albumin as the standard. Binding assays are usually performed immediately, however it is possible to prepare membranes in batch and store frozen in liquid nitrogen for future use.
# Radioligand binding assays for the MCH1 receptor were carried out using plasmid pEXJ.HR-TL231 (ATCC Accession No. 203197). Plasmid pEXJ.HR-TL231 comprises the regulatory elements necessary for expression of DNA in a mammalian cell operatively linked to DNA encoding the human MCH1 receptor so as to permit expression thereof. Plasmid pEXJ.HR-TL231 was deposited on Sep. 17, 1998, with the American Type Culture Collection (ATCC), 12301 Parklawn Drive, Rockville, Md. 20852, U.S.A. under the provisions of the Budapest Treaty for the International Recognition of the Deposit of Microorganisms for the Purposes of Patent Procedure and was accorded ATCC Accession No. 203197. […]
# human MCH1 receptor [2] = molecular target: T1, human MCH1 receptor; test: Functional assay: intracellular calcium mobilization (antagonist potency Kb); format: cell-based; set-up: expressed in transfected cells; host or cells: COS-7 cells, transient, DEAE-dextran, plasmid pEXJ.HR-TL231 (ATCC 203197)
# Experimental: Intracellular calcium mobilization assays for the MCH1 receptor were carried out using plasmid pEXJ.HR-TL231 (ATCC Accession No. 203197). COS-7 cells were transiently transfected with DNA encoding the MCH1 receptor utilizing the DEAE-dextran method as described above. The intracellular free calcium concentration was measured by fluorescent imaging using the calcium sensitive fluorscent dye Fluo-3. COS-7 cells expressing the human MCH1 receptor were seeded onto sterile 96 well plates, washed with Hank's balanced salt solution (HBSS), containing 20 mM HEPES, 2.5 mM probenecid, and 0.1% BSA, and loaded with the same buffer containing 3.8 μM Fluo-3 for 1 hour at 37° C. After washing with HBSS to remove the fluo-3 solution, cells were equilibrated for 10 minutes.
# human GALR3 = molecular target: T2, human GALR3 (Homo sapiens, UniProt O60755); test: Radioligand binding assay, cloned receptor; details: read-out: hGALR3 Ki
# T2 construct: expressed in transfected cells
# T2 sequence (O60755 1-368): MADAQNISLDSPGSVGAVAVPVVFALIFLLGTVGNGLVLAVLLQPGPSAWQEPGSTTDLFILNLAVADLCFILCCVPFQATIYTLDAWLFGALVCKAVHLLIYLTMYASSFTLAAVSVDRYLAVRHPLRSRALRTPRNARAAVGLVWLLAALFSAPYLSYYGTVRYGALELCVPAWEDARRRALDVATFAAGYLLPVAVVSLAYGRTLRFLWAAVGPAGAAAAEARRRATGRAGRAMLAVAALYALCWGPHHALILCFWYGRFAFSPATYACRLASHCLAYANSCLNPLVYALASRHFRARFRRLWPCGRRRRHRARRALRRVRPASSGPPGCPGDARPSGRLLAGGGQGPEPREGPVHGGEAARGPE
# Experimental: as §1
# The methods to obtain the cDNA of the human NPY1, NPY5, GALR1, GALR2, and GALR3 and rat 5-HT2C receptors, express said receptors in heterologous systems, and carry out assays to determine binding affinity are described in the following publications and above: human NPY1 (Larhammar et al., 1992), human NPY5 (U.S. Pat. No. 5,602,024, the disclosure of which is hereby incorporated by reference in its entirety into this application), human Gal1 (Habert-Ortoli et al., 1994), human Gal2 (Smith et al., 1997), human Gal3 (Smith et al., 1998), and rat 5-HT2C (Julius et al., 1988).
# T1 sequence (Q99705 whole entry): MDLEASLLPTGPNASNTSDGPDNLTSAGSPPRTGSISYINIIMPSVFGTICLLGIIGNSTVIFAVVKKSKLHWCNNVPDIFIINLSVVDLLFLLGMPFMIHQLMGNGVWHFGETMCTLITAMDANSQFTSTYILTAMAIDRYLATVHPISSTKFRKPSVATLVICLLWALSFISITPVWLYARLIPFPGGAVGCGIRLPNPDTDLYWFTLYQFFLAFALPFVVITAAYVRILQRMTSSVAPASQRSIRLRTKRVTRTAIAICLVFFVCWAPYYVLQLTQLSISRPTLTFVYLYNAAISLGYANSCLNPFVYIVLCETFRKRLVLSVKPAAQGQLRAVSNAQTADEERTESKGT
substance,measurement,setting,value
"2-(3,4-DIFLUOROPHENYL)4,5-DIHYDROIMIDAZOLE-1-CARBOXYLIC ACID {3-[4-PHENYL-4-(4-BROMO-5-METHYLTHIOPNEN-2-YL)]PROPYL}-AMIDE [Example 19]",Ki,human MCH1 receptor [1],3 nM
same,Kb,"human MCH1 receptor [2]; Table 1, cloned human MCH1 receptor, functional assay, read-out: Kb (nM) hMCH1",7 nM
same,Kb,"human MCH1 receptor [2]; Table 2, antagonist potency at the human MCH1 receptor, read-out: hMCH1 Kb",7 nM
same,Kb,"human MCH1 receptor [2]; Table 3, antagonist potency at the human MCH1 receptor, read-out: hMCH1 Kb",7 nM
same,Ki,human GALR3; Table 2,> 50000 nM
same,Ki,human GALR3; Table 3,> 50000 nM
